The target in the test is MAPK14;MAPK11;MAPK12 (human) (UniProt Q16539). The test is described as follows: Inhibition of p38 Kinase Activity.
On to `CCOC(=O)N1CCN(c2nc(NC[C@@H]3CC[C@H]4C[C@@H]3C4(C)C)nc(Nc3ccc4ncsc4c3)n2)CC1`, for which the IC50 is less than 10 µM.

`Cc1ccc(C(N)=O)cc1Nc1nc(N[C@@H]2CCN(C(C)C)C2)nc(N(C)CC(C)(C)C)n1`: the IC50 is less than 1 µM.

As for `CNCCN(C)c1nc(NCC2CCC3CC2C3(C)C)nc(Nc2ccc3ncccc3c2)n1` (stereo not given), the IC50 is less than 10 µM.

Take `Cc1ccc(C(N)=O)cc1Nc1nc(O)nc(NC2CCCC2)n1`: the IC50 was less than 1 µM.

Compound `Cc1ccc(C(N)=O)cc1Nc1nc(NC2CCN(C)C2)nc(N(C)CC(C)C)n1` (stereo not given) showed an IC50 of less than 1 µM.

In turn, `Cc1ccc(C(=O)Nc2cccc(N(C)C)c2)cc1Nc1nc(N[C@H]2CCNC2)nc(N(C)CC(C)C)n1` displayed an IC50 of less than 1 µM.

As to `Cc1ccc(CN2CC[C@H](Nc3nc(Nc4cc(C(N)=O)ccc4C)nc(N(C)CC(C)C)n3)C2)cc1`, the IC50 was less than 1 µM.

The compound `CC1(C)[C@@H]2CC[C@@H](CNc3nc(NC4CCNCC4)nc(N4CCc5ccc([N+](=O)[O-])cc54)n3)[C@H]1C2` gave an IC50 of less than 1 µM.

In the case of `Cc1ccc(CN2CC[C@H](Nc3nc(Nc4cc(C(N)=O)ccc4C)nc(N(C)CC(C)C)n3)C2)c(C)c1`, the IC50 is less than 1 µM.

On to `Cc1ccc(C(N)=O)cc1Nc1nc(NC2CCc3ccccc32)nc(N[C@@H]2CCNC2)n1` (stereo not given in full), for which the concentration for half-maximal inhibition (IC50) was less than 1 µM.

For the compound `CNC(=O)c1ccc(C)c(Sc2nc(N[C@@H]3CCNC3)nc(N(C)CC(C)(C)C)n2)c1`, the IC50 was less than 30 µM.

For the compound `CNCCN(C)c1nc(NC[C@H](C)c2ccccc2)nc(Nc2ccc3ncsc3c2)n1`, the IC50 was less than 10 µM.

`CCc1ccc(CN2CC[C@@H](Nc3nc(Nc4cc(C(N)=O)ccc4C)nc(N(C)CC(C)C)n3)C2)cc1` yielded an IC50 of less than 1 µM.

With `Cc1ccc(C(N)=O)cc1Nc1nc(NC2CCN(Cc3ccccc3)C2)nc(N(C)CC(C)(C)C)n1` (stereo not given), the IC50 is less than 1 µM.

`Cc1ccc(C(N)=O)cc1Nc1nc(N[C@H]2CCNC2)cc(N(C)CC(C)C)n1` registered a concentration for half-maximal inhibition (IC50) of less than 1 µM.

In the case of `CC(=O)NCCNc1nc(Nc2cc(C(N)=O)ccc2C)nc(N(C)CC(C)(C)C)n1`, the IC50 was less than 1 µM.

`CC(C)OCCNc1cc(Cl)nc(-n2cnc3ccccc32)n1`: the IC50 was less than 10 µM.

With `CONC(=O)c1ccc(C)c(Nc2nc(NCCc3ccccn3)nc(N(C)CC(C)(C)C)n2)c1`, the IC50 is less than 1 µM.

Take `Cc1ccc(C(N)=O)cc1Nc1nc(NCCc2ccc(O)cc2)nc(N[C@H]2CCNC2)n1`: the IC50 was less than 1 µM.

The compound `CCCCNc1nc(Nc2cc(C(=O)NOC)ccc2C)nc(N(C)CC(C)(C)C)n1` had an IC50 of less than 1 µM.

Compound `Cc1ccc(C(N)=O)cc1Nc1nc(CC2CCCC2)nc(Nc2ccncc2)n1` came in with an IC50 of less than 1 µM.

In turn, `Cc1ccccc1NC(=S)N1CCN(c2nc(NCC(C)c3ccccc3)nc(Nc3ccc4ncsc4c3)n2)CC1` (stereo not given) registered an IC50 of less than 10 µM.

As to `CCN1CC[C@@H](Nc2nc(Nc3cc(C(=O)NOC)ccc3C)nc(N(C)CC(C)(C)C)n2)C1`, the half-maximal inhibitory concentration (IC50) was less than 1 µM.

For the compound `CONC(=O)c1ccc(C)c(Nc2nc(NCCNC(C)=O)nc(N(C)CC(C)(C)C)n2)c1`, the concentration for half-maximal inhibition (IC50) is less than 1 µM.

As to `Cc1ccccc1NC(=O)N1CC2CC1CN2c1nc(NCC(C)c2ccccc2)nc(Nc2ccc3ncsc3c2)n1` (stereo not given), the IC50 is less than 10 µM.

As for `CC1(C)C2CCC(CNc3nc(Nc4ccc5[nH]nnc5c4)nc(N4CCNCC4)n3)C1C2` (stereo not given), the IC50 was less than 10 µM.

As for `COCC(C)N1CC[C@@H](Nc2nc(Nc3cc(C(N)=O)ccc3C)nc(N(C)CC(C)(C)C)n2)C1` (stereo not given in full), the IC50 was less than 1 µM.

The compound `CNC1CCN(c2cc(NCCOC(C)C)nc(-n3cnc4ccccc43)n2)C1` (stereo not given) showed an IC50 of less than 10 µM.

For the compound `CNC(=O)CCC(=O)N1CCN(c2nc(NCC3CCC4CC3C4(C)C)nc(Nc3ccc4ncsc4c3)n2)CC1` (stereo not given), the IC50 is less than 10 µM.

`Cc1ccc(C(=O)NCC(F)(F)F)cc1Nc1nc(N[C@H]2CCNC2)nc(N(C)CC(C)(C)C)n1` displayed a half-inhibitory concentration (IC50) of less than 1 µM.

In turn, `Cc1ccc(C(N)=O)cc1Nc1nc(N[C@H]2CCN(Cc3ccccc3F)C2)nc(N(C)CC(C)C)n1` yielded an IC50 of less than 1 µM.

`Cc1ccc(CC2CC(Nc3nc(Nc4cc(C(N)=O)ccc4C)nc(N(C)CC(C)(C)C)n3)CN2)cc1` (stereo not given) yielded an IC50 of less than 1 µM.

As to `Cc1ccc(C(N)=O)cc1Nc1nc(NCC(C)c2ccc(Cl)cc2)nc(N[C@H]2CCNC2)n1` (stereo not given in full), the IC50 is less than 1 µM.

Turning to `CCCC1(C)CCN(c2nc(Nc3cc(C(N)=O)ccc3C)nc(N[C@@H]3CCNC3)n2)C1` (stereo not given in full), the IC50 is less than 1 µM.

Regarding `CC(C)NC(=O)N1CC2CC1CN2c1nc(NCC(C)c2ccccc2)nc(Nc2ccc3ncsc3c2)n1` (stereo not given), the IC50 was less than 10 µM.

`CC(C)NC(=O)N1CCN(c2nc(NCC(C)c3ccccc3)nc(Nc3ccc4ncsc4c3)n2)CC1` (stereo not given) had an IC50 of less than 10 µM.

The compound `Cc1ccc(C(=O)NCCc2ccccc2)cc1Nc1nc(N[C@H]2CCNC2)nc(N(C)CC(C)(C)C)n1` returned an IC50 of less than 1 µM.

`Cc1ccc(C(N)=O)cc1Nc1nc(NC2CCN(C(C)C)CC2)nc(N(C)CC(C)(C)C)n1`: the 50% inhibitory concentration (IC50) is less than 1 µM.

`C[C@H](CNc1ncnc(Nc2ccc3ncsc3c2)n1)c1ccccc1` displayed a half-maximal inhibitory concentration (IC50) of less than 10 µM.

`CNC(=O)c1ccc(C)c(Nc2nc(NC3CCN(Cc4ccccn4)C3)nc(N(C)CC(C)(C)C)n2)c1` (stereo not given) came in with an IC50 of less than 1 µM.

The compound `CC1(C)[C@@H]2CC[C@@H](CNc3nc(Nc4cc(C(N)=O)ccc4Cl)nc(NC4CCNC4)n3)[C@H]1C2` (stereo not given in full) showed an IC50 of less than 1 µM.

In turn, `Cc1ccc(C(N)=O)cc1Nc1nc(NC2CCN(Cc3ccc(O)cc3)C2)nc(N(C)CC(C)C)n1` (stereo not given) returned an IC50 of less than 1 µM.

On to `CONC(=O)c1ccc(C)c(Nc2nc(N(C)CCN(C)C)nc(N(C)CC(C)(C)C)n2)c1`, for which the IC50 was less than 1 µM.

For `COc1ccc(NC(=O)c2ccc(C)c(Nc3nc(N[C@H]4CCNC4)nc(N(C)CC(C)(C)C)n3)c2)cc1`, the IC50 was less than 1 µM.

In the case of `CCNC(=O)N1CCN(c2nc(NC[C@@H]3CC[C@H]4C[C@@H]3C4(C)C)nc(Nc3ccc4ncsc4c3)n2)CC1`, the IC50 was less than 10 µM.

Compound `CNC1CCN(c2cc(NCCOC(C)C)nc(-n3cnc4ccc(C)cc43)n2)C1` (stereo not given) registered an IC50 of less than 10 µM.

For the compound `COc1ccccc1CN1CC[C@@H](Nc2nc(Nc3cc(C(N)=O)ccc3C)nc(N(C)CC(C)C)n2)C1`, the IC50 is less than 1 µM.

`Cc1ccc(C(N)=O)cc1Nc1nc(Cl)nc(N[C@@H]2CCNC2)n1` displayed an IC50 of less than 1 µM.

As for `CC(CNc1nc(Nc2ccc3ncsc3c2)nc(N(C)CCCN(C)C(=O)c2ccccc2)n1)c1ccccc1` (stereo not given), the IC50 was less than 10 µM.

As to `Cc1ccc(COC(=O)C(F)(F)F)cc1Nc1nc(N[C@H]2CCNC2)nc(N(C)CC(C)(C)C)n1`, the IC50 is less than 1 µM.

Compound `Cc1ccc(C(N)=O)cc1Nc1nc(N[C@H]2CCN(C)C2)nc(N(C)CC(C)(C)C)n1` registered an IC50 of less than 1 µM.

With `Cc1ccc(C(N)=O)cc1Nc1nc(N[C@@H]2CCNC2)nc(N2CCc3ccccc3C2)n1`, the IC50 is less than 1 µM.

With `Cc1ccc(C(N)=O)cc1Nc1nc(N[C@H]2CCN(C(C#N)c3ccccc3)C2)nc(N(C)CC(C)(C)C)n1` (stereo not given in full), the IC50 is less than 1 µM.

As for `Cc1ccc(-c2n[nH]c(=O)[nH]2)cc1Nc1nc(N[C@@H]2CCNC2)nc(N(C)CC(C)(C)C)n1`, the IC50 is less than 1 µM.

Regarding `Clc1nc(Nc2ccc3ncsc3c2)nc(N2CCCC(c3ccccc3)C2)n1` (stereo not given), the IC50 is less than 10 µM.

`Cc1ccc(C(N)=O)cc1Nc1nc(NC2CCCC2)nc(NC2CCN(Cc3ccccc3)C2)n1` (stereo not given) had a half-inhibitory concentration (IC50) of less than 1 µM.

As for `CNCCN(C)c1nc(NC[C@@H](C)c2ccccc2)nc(Nc2ccc3ncsc3c2)n1`, the IC50 is less than 10 µM.

As for `Cc1ccc(C(N)=O)cc1Nc1nc(NCC23CC4CC(CC(C4)C2)C3)nc(N[C@H]2CCNC2)n1`, the IC50 was less than 1 µM.

As for `Cc1ccc(C(N)=O)cc1Nc1nc(N[C@H]2CCN(Cc3ccccc3O)C2)nc(N(C)CC(C)C)n1`, the half-maximal inhibitory concentration (IC50) is less than 1 µM.

As for `Cc1ccc(C(=O)Nc2c(Cl)cccc2Cl)cc1Nc1nc(N[C@H]2CCNC2)nc(N(C)CC(C)(C)C)n1`, the IC50 was less than 1 µM.

The compound `Cc1ccc(C(=O)NO)cc1Nc1nc(N[C@H]2CCNC2)nc(N(C)CC(C)(C)C)n1` gave an IC50 of less than 1 µM.

In the case of `CNC(=O)c1ccc(C)c(Nc2nc(NCC(C)(C)C)nc(N[C@H]3CCNC3)n2)c1`, the half-maximal inhibitory concentration (IC50) was less than 1 µM.

On to `Cc1ccc(C(N)=O)cc1Nc1nc(N[C@H]2CCN(C(C)c3ccccc3)C2)nc(N(C)CC(C)C)n1` (stereo not given in full), for which the IC50 is less than 1 µM.

Consider `CONC(=O)c1ccc(C)c(Nc2nc(NCc3ccc(Cl)c(Cl)c3)nc(N(C)CC(C)(C)C)n2)c1`, for which the IC50 is less than 1 µM.

In the case of `CSc1nc2ccc(Nc3nc(NC[C@H](C)O)nc(N[C@@H](C)C4CCCCC4)n3)cc2s1`, the IC50 was less than 10 µM.

Regarding `CC(=O)N1CCN(c2nc(Nc3ccc4ncsc4c3)nc(N(C)CC3CCC4CC3C4(C)C)n2)CC1` (stereo not given), the IC50 is less than 10 µM.

As to `CC(CNc1nc(Nc2ccc3ncsc3c2)nc(N(C)CCCN(C)S(=O)(=O)N(C)C)n1)c1ccccc1` (stereo not given), the IC50 was less than 10 µM.

Take `O=C(O)CCC(=O)N1CCN(c2nc(NCC3CCCCC3)nc(Nc3ccc4ncsc4c3)n2)CC1`: the half-maximal inhibitory concentration (IC50) is less than 10 µM.

On to `CC(CNc1nc(Nc2ccc3ncsc3c2)nc(N2CC3CC2CN3C(=O)c2ccco2)n1)c1ccccc1` (stereo not given), for which the IC50 is less than 10 µM.

`Cc1ccc(C(N)=O)cc1Nc1nc(N[C@H]2CCCC[C@H]2NC(C)C)nc(N(C)CC(C)(C)C)n1` yielded a half-maximal inhibitory concentration (IC50) of less than 1 µM.

`Cc1ccc(C(N)=O)cc1Nc1nc(N[C@H]2CCN(Cc3cccc(O)c3)C2)nc(N(C)CC(C)C)n1` yielded an IC50 of less than 1 µM.

Compound `Cc1ccc(C(N)=O)cc1Sc1nc(NCc2ccccn2)nc(N(C)CC(C)(C)C)n1` yielded an IC50 of less than 30 µM.

In turn, `CCC(C)(C)c1nc(Nc2cc(C(N)=O)ccc2C)nc(N[C@H]2CCNC2)n1` showed an IC50 of less than 1 µM.

On to `CC(CNc1nc(Nc2ccc3ncsc3c2)nc(N2CC3CC2CN3C(=O)C2CCOC2)n1)c1ccccc1` (stereo not given), for which the IC50 is less than 10 µM.

On to `CONC(=O)c1ccc(C)c(Sc2nc(NCc3ccccn3)nc(N(C)CC(C)(C)C)n2)c1`, for which the IC50 is less than 30 µM.

Compound `Cc1cc2c(cc1Nc1nc(NCC(C)(C)C)nc(N[C@H]3CCNC3)n1)C(=O)NC2` registered an IC50 of less than 1 µM.

`CONC(=O)c1ccc(C)c(Oc2nc(NCc3ccccn3)nc(N(C)CC(C)(C)C)n2)c1` yielded an IC50 of less than 30 µM.

Turning to `CONC(=O)c1ccc(C)c(Nc2nc(NCCCn3ccnc3)nc(N(C)CC(C)(C)C)n2)c1`, the IC50 was less than 1 µM.

Compound `CNC(=O)c1ccc(C)c(Oc2nc(N(C)CC(C)(C)C)nc(N3CCCN(C)CC3)n2)c1` showed an IC50 of less than 30 µM.

`CC(CNc1nc(Nc2ccc3ncsc3c2)nc(N2CCN(C(=O)c3cccnc3)CC2)n1)c1ccccc1` (stereo not given) had an IC50 of less than 10 µM.

The term IC50 denotes the concentration that inhibits the measured activity by half. Read a high IC50 as weaker potency in that assay.

The record behind these values is the Kinase Knowledgebase extract (Sharma et al. 2016).
